Laboratory results: patent US12227495B2, “Herbicidal compounds” (SYNGENTA CROP PROTECTION AG, priority 2018, dated 2025)

Assays:
Type in all cases: in vivo
Conditions in all cases: evaluated after 13 days
[1] = system: Solanum nigrum (SOLNI); experiment: Pre-emergence herbicide test, glasshouse, percentage damage
Procedure, shortened: (§1)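 Seeds sown in pots; cultured 1 day (pre-emergence) or 8 days (post-emergence) in a controlled glasshouse; then sprayed with the active in acetone/water 50:50 plus 0.5% Tween 20 at 500 g/ha unless noted; grown on 13 days; damage assessed and banded into five classes.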

[2] = system: Lolium perenne (LOLPE); experiment: as above
Procedure, shortened: as §1

[3] = system: Echinochloa crus-galli (ECHCG); experiment: as above
Procedure, shortened: as §1

[4] = system: Setaria faberi (SETFA); experiment: as above
Procedure, shortened: as §1

[5] = system: Ipomoea hederacea (IPOHE); experiment: as above
Procedure, shortened: as §1

[6] = system: Amaranthus retoflexus (AMARE); experiment: as above
Procedure, shortened: as §1

[7] = system: Solanum nigrum (SOLNI); experiment: Post-emergence herbicide test, glasshouse, percentage damage
Procedure, shortened: as §1

[8] = system: Lolium perenne (LOLPE); experiment: as above
Procedure, shortened: as §1

[9] = system: Echinochloa crus-galli (ECHCG); experiment: as above
Procedure, shortened: as §1

[10] = system: Setaria faberi (SETFA); experiment: as above
Procedure, shortened: as §1

[11] = system: Ipomoea hederacea (IPOHE); experiment: as above
Procedure, shortened: as §1

[12] = system: Amaranthus retoflexus (AMARE); experiment: as above
Procedure, shortened: as §1

Row | SMILES | Pre-emergence Test SOLNI percentage damage (five point scale) ([1]; rate 1000 g/ha) | Pre-emergence Test LOLPE percentage damage (five point scale) ([2]; rate 1000 g/ha) | Pre-emergence Test ECHCG percentage damage (five point scale) ([3]; rate 1000 g/ha) | Pre-emergence Test SETFA percentage damage (five point scale) ([4]; rate 1000 g/ha) | Pre-emergence Test IPOHE percentage damage (five point scale) ([5]; rate 1000 g/ha) | Pre-emergence Test AMARE percentage damage (five point scale) ([6]; rate 1000 g/ha) | percentage damage caused to the plant, SOLNI ([7]; 1000 g/ha) | percentage damage caused to the plant, LOLPE ([8]; 1000 g/ha) | percentage damage caused to the plant, ECHCG ([9]; 1000 g/ha) | percentage damage caused to the plant, SETFA ([10]; 1000 g/ha) | percentage damage caused to the plant, IPOHE ([11]; 1000 g/ha) | percentage damage caused to the plant, AMARE ([12]; 1000 g/ha) | Pre-emergence Test SOLNI percentage damage (five point scale) ([1]; rate 500 g/ha) | Pre-emergence Test LOLPE percentage damage (five point scale) ([2]; rate 500 g/ha) | Pre-emergence Test ECHCG percentage damage (five point scale) ([3]; rate 500 g/ha) | Pre-emergence Test SETFA percentage damage (five point scale) ([4]; rate 500 g/ha) | Pre-emergence Test IPOHE percentage damage (five point scale) ([5]; rate 500 g/ha) | Pre-emergence Test AMARE percentage damage (five point scale) ([6]; rate 500 g/ha) | percentage damage caused to the plant, SOLNI ([7]; 500 g/ha) | percentage damage caused to the plant, LOLPE ([8]; 500 g/ha) | other results
1 | FC(F)c1cc(-c2c(Br)cccc2Oc2cc(Cl)ccn2)on1 [Compound A86] | 2 (2=21-40%) | 4 (4=61-80%) | 5 (5=81-100%) | 5 (5=81-100%) | 1 (1=0-20%) | 4 (4=61-80%) | 4 (4=61-80%) | 4 (4=61-80%) | 4 (4=61-80%) | 4 (4=61-80%) | 4 (4=61-80%) | 4 (4=61-80%) | – | – | – | – | – | – | – | – | –
2 | N#Cc1ccnc(Oc2cccc(Cl)c2-c2cc(C(F)F)no2)c1 [Compound A91] | 3 (3=41-60%) | 4 (4=61-80%) | 5 (5=81-100%) | 5 (5=81-100%) | 4 (4=61-80%) | 4 (4=61-80%) | 4 (4=61-80%) | 4 (4=61-80%) | 4 (4=61-80%) | 4 (4=61-80%) | 4 (4=61-80%) | 4 (4=61-80%) | – | – | – | – | – | – | – | – | –
3 | N#Cc1ccc(Oc2cccc(F)c2-c2cc(C(F)F)no2)nc1 [Compound A12] | – | – | – | – | – | – | – | – | – | – | – | – | 5 (5=81-100%) | 5 (5=81-100%) | 5 (5=81-100%) | 5 (5=81-100%) | 5 (5=81-100%) | 5 (5=81-100%) | 5 (5=81-100%) | 5 (5=81-100%) | percentage damage caused to the plant, ECHCG ([9]; 500 g/ha): 5 (5=81-100%); percentage damage caused to the plant, SETFA ([10]; 500 g/ha): 5 (5=81-100%); percentage damage caused to the plant, IPOHE ([11]; 500 g/ha): 5 (5=81-100%); percentage damage caused to the plant, AMARE ([12]; 500 g/ha): 5 (5=81-100%)
4 | FC(F)(F)c1cnn(-c2ccccc2Oc2ccc(Cl)cn2)c1 [Compound A17] | 5 (5=81-100%) | 5 (5=81-100%) | 5 (5=81-100%) | 5 (5=81-100%) | 5 (5=81-100%) | 5 (5=81-100%) | 5 (5=81-100%) | 5 (5=81-100%) | 5 (5=81-100%) | 5 (5=81-100%) | 5 (5=81-100%) | 5 (5=81-100%) | – | – | – | – | – | – | – | – | –
5 | Fc1cccc(Oc2cccc(F)c2-c2cc(C(F)F)no2)n1 [Compound A7] | – | – | – | – | – | – | – | – | – | – | – | – | 5 (5=81-100%) | 1 (1=0-20%) | 4 (4=61-80%) | 4 (4=61-80%) | 1 (1=0-20%) | 5 (5=81-100%) | 5 (5=81-100%) | 2 (2=21-40%) | percentage damage caused to the plant, ECHCG ([9]; 500 g/ha): 4 (4=61-80%); percentage damage caused to the plant, SETFA ([10]; 500 g/ha): 5 (5=81-100%); percentage damage caused to the plant, IPOHE ([11]; 500 g/ha): 2 (2=21-40%); percentage damage caused to the plant, AMARE ([12]; 500 g/ha): 2 (2=21-40%)
6 | N#Cc1cc(F)cnc1Oc1cccc(Br)c1-c1cc(C(F)F)no1 [Compound A84] | 4 (4=61-80%) | 5 (5=81-100%) | 5 (5=81-100%) | 5 (5=81-100%) | 5 (5=81-100%) | 5 (5=81-100%) | 5 (5=81-100%) | 5 (5=81-100%) | 5 (5=81-100%) | 5 (5=81-100%) | 5 (5=81-100%) | 5 (5=81-100%) | – | – | – | – | – | – | – | – | –
7 | N#Cc1ccnc(Oc2cccc(Br)c2-c2cc(C(F)F)no2)c1 [Compound A87] | 3 (3=41-60%) | 4 (4=61-80%) | 4 (4=61-80%) | 5 (5=81-100%) | 1 (1=0-20%) | 4 (4=61-80%) | 4 (4=61-80%) | 3 (3=41-60%) | 3 (3=41-60%) | 5 (5=81-100%) | 3 (3=41-60%) | 4 (4=61-80%) | – | – | – | – | – | – | – | – | –
8 | O=[N+]([O-])c1ccc(Oc2cccc(F)c2-c2cc(C(F)F)no2)nc1 [Compound A2, 3-(DIFLUOROMETHYL)-5-[2-FLUORO-6-[(5-NITRO-2-PYRIDYL)OXY]PHENYL]ISOXAZOLE] | – | – | – | – | – | – | – | – | – | – | – | – | 4 (4=61-80%) | 4 (4=61-80%) | 5 (5=81-100%) | 5 (5=81-100%) | 2 (2=21-40%) | 5 (5=81-100%) | 5 (5=81-100%) | 5 (5=81-100%) | percentage damage caused to the plant, ECHCG ([9]; 500 g/ha): 5 (5=81-100%); percentage damage caused to the plant, SETFA ([10]; 500 g/ha): 5 (5=81-100%); percentage damage caused to the plant, IPOHE ([11]; 500 g/ha): 4 (4=61-80%); percentage damage caused to the plant, AMARE ([12]; 500 g/ha): 5 (5=81-100%)
